ChEMBL document CHEMBL5506069, “A Unique Hybridization Route to Access Hydrazylnaphthalimidols as Novel Structural Scaffolds of Multitargeting Broad-Spectrum Antifungal Candidates” (J Med Chem, 2024)
≈ marks a conversion by molar mass, not a printed value.

What was measured:
Format in all cases: functional
[1] = test system: Candida albicans; assay: Antifungal activity against Candida albicans ATCC 90023 assessed as inhibition of fungal growth incubated for 24 hrs by CLSI based microbroth dilution method
[2] = test system: Candida parapsilosis; assay: Antifungal activity against Candida parapsilosis ATCC 22019 assessed as inhibition of fungal growth incubated for 24 hrs by CLSI based microbroth dilution method; conditions: Lodderomyces parapsilosis
[3] = test system: Aspergillus fumigatus; assay: Antifungal activity against Aspergillus fumigatus assessed as inhibition of fungal growth incubated for 24 hrs by CLSI based microbroth dilution method
[4] = test system: Candida tropicalis; assay: Antifungal activity against Candida tropicalis assessed as inhibition of fungal growth incubated for 24 hrs by CLSI based microbroth dilution method
[5] = test system: Candida albicans; assay: Antifungal activity against Candida albicans assessed as inhibition of fungal growth incubated for 24 hrs by CLSI based microbroth dilution method

MIC [1] [µM]	MIC [2] [µM]	MIC [3] [µM]	MIC [4] [µM]	MIC [5] [µM]	SMILES
8 (≈ 3.95 µg/mL)	65 (≈ 32.1 µg/mL)	8 (≈ 3.95 µg/mL)	32 (≈ 15.8 µg/mL)	65 (≈ 32.1 µg/mL)	CCCCc1nc(Cl)c(/C=N/Nc2ccc3c4c(cccc24)C(=O)N(CCO)C3=O)n1CC1CC1
355 (≈ 128 µg/mL)	89 (≈ 32.1 µg/mL)	355 (≈ 128 µg/mL)	355 (≈ 128 µg/mL)	711 (≈ 256 µg/mL)	O=C1c2cccc3c(N/N=C/c4cccnc4)ccc(c23)C(=O)N1CCO
1170 (≈ 512 µg/mL)	1170 (≈ 512 µg/mL)	587 (≈ 256 µg/mL)	1170 (≈ 512 µg/mL)	1170 (≈ 512 µg/mL)	C/C(Cn1c([N+](=O)[O-])cnc1C)=N\Nc1ccc2c3c(cccc13)C(=O)N(CCO)C2=O
22 (≈ 9.74 µg/mL)	5 (≈ 2.21 µg/mL)	44 (≈ 19.5 µg/mL)	87 (≈ 38.5 µg/mL)	87 (≈ 38.5 µg/mL)	O=C1c2cccc3c(N/N=C/c4cnc(-c5ccccc5)s4)ccc(c23)C(=O)N1CCO
84 (≈ 30.5 µg/mL)	169 (≈ 61.4 µg/mL)	338 (≈ 123 µg/mL)	84 (≈ 30.5 µg/mL)	42 (≈ 15.3 µg/mL)	Cc1ccc(/C=N/Nc2ccc3c4c(cccc24)C(=O)N(CCO)C3=O)o1
1220 (≈ 512 µg/mL)	1220 (≈ 512 µg/mL)	1220 (≈ 512 µg/mL)	1220 (≈ 512 µg/mL)	1220 (≈ 512 µg/mL)	CCN1C(=O)c2cccc3c(N/N=C(\C)Cn4c([N+](=O)[O-])cnc4C)ccc(c23)C1=O
7 (≈ 4.03 µg/mL)	14 (≈ 8.05 µg/mL)	111 (≈ 63.8 µg/mL)	28 (≈ 16.1 µg/mL)	111 (≈ 63.8 µg/mL)	CCCCc1nc(Cl)c(/C=N/Nc2ccc3c4c(cccc24)C(=O)N(CCO)C3=O)n1Cc1ccc([N+](=O)[O-])cc1
711 (≈ 256 µg/mL)	355 (≈ 128 µg/mL)	355 (≈ 128 µg/mL)	355 (≈ 128 µg/mL)	355 (≈ 128 µg/mL)	O=C1c2cccc3c(N/N=C/c4ccncc4)ccc(c23)C(=O)N1CCO
4 (≈ 2.19 µg/mL)	58 (≈ 31.8 µg/mL)	117 (≈ 64.1 µg/mL)	58 (≈ 31.8 µg/mL)	58 (≈ 31.8 µg/mL)	CCCCc1nc(Cl)c(/C=N/Nc2ccc3c4c(cccc24)C(=O)N(CCO)C3=O)n1Cc1ccc(F)cc1
5 (≈ 1.9 µg/mL)	21 (≈ 7.97 µg/mL)	10 (≈ 3.79 µg/mL)	5 (≈ 1.9 µg/mL)	21 (≈ 7.97 µg/mL)	O=C1c2cccc3c(N/N=C/c4ccc(CO)o4)ccc(c23)C(=O)N1CCO
255	64	127	32	32	C[n+]1ccccc1/C=N/Nc1ccc2c3c(cccc13)C(=O)N(CCO)C2=O
300 (≈ 128 µg/mL)	599 (≈ 257 µg/mL)	300 (≈ 128 µg/mL)	150 (≈ 64.2 µg/mL)	150 (≈ 64.2 µg/mL)	O=C1c2cccc3c(N/N=C/c4c(Cl)cccc4Cl)ccc(c23)C(=O)N1CCO
4 (≈ 2.21 µg/mL)	116 (≈ 64.2 µg/mL)	29 (≈ 16 µg/mL)	29 (≈ 16 µg/mL)	58 (≈ 32.1 µg/mL)	CCCCc1nc(Cl)c(/C=N/Nc2ccc3c4c(cccc24)C(=O)N(CCO)C3=O)n1CCN1CCOCC1
4 (≈ 2.26 µg/mL)	57 (≈ 32.2 µg/mL)	227 (≈ 128 µg/mL)	57 (≈ 32.2 µg/mL)	57 (≈ 32.2 µg/mL)	CCCCc1nc(Cl)c(/C=N/Nc2ccc3c4c(cccc24)C(=O)N(CCO)C3=O)n1Cc1ccccc1Cl
351 (≈ 128 µg/mL)	175 (≈ 63.9 µg/mL)	175 (≈ 63.9 µg/mL)	351 (≈ 128 µg/mL)	175 (≈ 63.9 µg/mL)	O=C1c2cccc3c(N/N=C/c4cccs4)ccc(c23)C(=O)N1CCO
61 (≈ 32.1 µg/mL)	244 (≈ 128 µg/mL)	61 (≈ 32.1 µg/mL)	2 (≈ 1.05 µg/mL)	30 (≈ 15.8 µg/mL)	CCCCc1nc(Cl)c(/C=N/Nc2ccc3c4c(cccc24)C(=O)N(CCO)C3=O)n1CC(=O)OCC
3 (≈ 1.8 µg/mL)	13 (≈ 7.79 µg/mL)	214 (≈ 128 µg/mL)	54 (≈ 32.3 µg/mL)	54 (≈ 32.3 µg/mL)	CCCCc1nc(Cl)c(/C=N/Nc2ccc3c4c(cccc24)C(=O)N(CCO)C3=O)n1Cc1ccc(Cl)cc1Cl
18 (≈ 7.92 µg/mL)	291 (≈ 128 µg/mL)	73 (≈ 32.1 µg/mL)	73 (≈ 32.1 µg/mL)	36 (≈ 15.8 µg/mL)	CCCCc1nc(Cl)c(/C=N/Nc2ccc3c4c(cccc24)C(=O)N(CCO)C3=O)[nH]1
313 (≈ 128 µg/mL)	626 (≈ 257 µg/mL)	313 (≈ 128 µg/mL)	313 (≈ 128 µg/mL)	626 (≈ 257 µg/mL)	O=C1c2cccc3c(N/N=C/c4cc(Cl)ccc4O)ccc(c23)C(=O)N1CCO
1040 (≈ 512 µg/mL)	1040 (≈ 512 µg/mL)	1040 (≈ 512 µg/mL)	1040 (≈ 512 µg/mL)	1040 (≈ 512 µg/mL)	CCCCCCCN1C(=O)c2cccc3c(N/N=C(\C)Cn4c([N+](=O)[O-])cnc4C)ccc(c23)C1=O
1110 (≈ 512 µg/mL)	554 (≈ 256 µg/mL)	554 (≈ 256 µg/mL)	1110 (≈ 512 µg/mL)	1110 (≈ 512 µg/mL)	CCCCCN1C(=O)c2cccc3c(N/N=C(\C)Cn4c([N+](=O)[O-])cnc4C)ccc(c23)C1=O
954 (≈ 545 µg/mL)	239 (≈ 136 µg/mL)	477 (≈ 272 µg/mL)	477 (≈ 272 µg/mL)	477 (≈ 272 µg/mL)	C/C(Cn1c([N+](=O)[O-])cnc1C)=N\Nc1ccc2c3c(cccc13)C(=O)N(c1ccc(C(F)(F)F)cc1Cl)C2=O
7 (≈ 3.75 µg/mL)	60 (≈ 32.2 µg/mL)	2 (≈ 1.07 µg/mL)	15 (≈ 8.04 µg/mL)	120 (≈ 64.3 µg/mL)	CCCCc1nc(Cl)c(/C=N/Nc2ccc3c4c(cccc24)C(=O)N(CCO)C3=O)n1CC1CCCCC1
655 (≈ 256 µg/mL)	327 (≈ 128 µg/mL)	327 (≈ 128 µg/mL)	655 (≈ 256 µg/mL)	327 (≈ 128 µg/mL)	O=C1c2cccc3c(N/N=C/c4ccc(O)cc4O)ccc(c23)C(=O)N1CCO
